From paper PMC12406203 (Journal of Medicinal Chemistry, 2025)

Columns and labels:
Experiment in all cases: KINOMEscan
Assay type in all cases: binding
LCK = molecular target: T1, LCK (Homo sapiens, UniProt P06239)
T1 construct: purchased Eurofins DiscoverX, LLC; host or cells: E. coli (BL21-derived, T7 phage) or HEK-293

CDK3 = molecular target: T2, CDK3 (Homo sapiens, UniProt Q00526)
T2 construct: purchased Eurofins DiscoverX, LLC; host or cells: E. coli BL21-derived (T7 phage) or HEK-293

PIK3CA = molecular target: T3, PIK3CA (Homo sapiens, UniProt P42336)
T3 construct: purchased Eurofins DiscoverX, LLC; host or cells: E. coli BL21-derived host (T7 phage) or HEK-293

FAK = molecular target: T4, FAK (Homo sapiens, UniProt Q05397)
T4 construct: purchased Eurofins DiscoverX, LLC; host or cells: E. coli (T7 phage) or HEK-293

IKKα = molecular target: T5, IKKα (Homo sapiens, UniProt O15111)
T5 construct: purchased Eurofins DiscoverX, LLC; host or cells: E. coli (T7 phage) or HEK-293
T5 sequence (O15111 1-745): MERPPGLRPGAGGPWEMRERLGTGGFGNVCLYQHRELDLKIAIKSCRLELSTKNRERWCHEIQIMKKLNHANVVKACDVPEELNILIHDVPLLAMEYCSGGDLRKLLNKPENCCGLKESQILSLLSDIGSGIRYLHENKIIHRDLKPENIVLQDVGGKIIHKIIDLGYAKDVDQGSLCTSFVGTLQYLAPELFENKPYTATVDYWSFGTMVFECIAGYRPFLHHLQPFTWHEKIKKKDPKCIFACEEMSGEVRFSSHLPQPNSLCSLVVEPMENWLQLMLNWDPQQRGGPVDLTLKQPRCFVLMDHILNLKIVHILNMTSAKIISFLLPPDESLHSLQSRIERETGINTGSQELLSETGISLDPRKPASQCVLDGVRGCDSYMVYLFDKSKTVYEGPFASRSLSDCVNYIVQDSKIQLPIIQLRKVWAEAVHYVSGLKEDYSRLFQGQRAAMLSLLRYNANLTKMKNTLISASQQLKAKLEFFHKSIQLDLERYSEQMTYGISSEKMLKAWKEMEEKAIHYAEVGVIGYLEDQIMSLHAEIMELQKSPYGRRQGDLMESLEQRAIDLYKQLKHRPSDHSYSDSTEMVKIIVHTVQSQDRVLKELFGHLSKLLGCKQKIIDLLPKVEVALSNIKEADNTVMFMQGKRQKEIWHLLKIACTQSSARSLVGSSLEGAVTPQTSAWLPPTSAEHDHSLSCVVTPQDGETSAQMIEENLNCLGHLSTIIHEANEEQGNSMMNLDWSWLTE

ZAP70 = molecular target: T6, ZAP70 (Homo sapiens, UniProt P43403)
T6 construct: purchased Eurofins DiscoverX, LLC; host or cells: E. coli BL21-derived host (T7 phage) or HEK-293
T6 sequence (P43403 1-619): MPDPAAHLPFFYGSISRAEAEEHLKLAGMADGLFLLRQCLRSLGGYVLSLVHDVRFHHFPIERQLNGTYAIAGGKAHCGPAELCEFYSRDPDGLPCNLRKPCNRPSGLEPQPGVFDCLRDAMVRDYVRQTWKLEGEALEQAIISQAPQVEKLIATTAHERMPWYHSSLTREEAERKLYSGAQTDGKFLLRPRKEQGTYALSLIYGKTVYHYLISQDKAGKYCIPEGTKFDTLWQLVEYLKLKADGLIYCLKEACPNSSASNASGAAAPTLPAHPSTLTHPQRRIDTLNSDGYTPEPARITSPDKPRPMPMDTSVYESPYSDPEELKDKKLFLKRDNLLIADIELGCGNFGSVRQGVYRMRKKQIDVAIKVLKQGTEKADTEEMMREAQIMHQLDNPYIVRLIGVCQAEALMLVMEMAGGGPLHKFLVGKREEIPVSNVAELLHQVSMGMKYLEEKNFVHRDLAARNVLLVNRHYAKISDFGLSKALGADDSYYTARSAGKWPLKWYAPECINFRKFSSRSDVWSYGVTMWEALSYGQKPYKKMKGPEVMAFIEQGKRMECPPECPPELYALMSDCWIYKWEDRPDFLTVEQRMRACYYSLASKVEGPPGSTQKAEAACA

PDPK1 = molecular target: T7, PDPK1 (Homo sapiens, UniProt O15530)
T7 construct: purchased Eurofins DiscoverX, LLC; host or cells: E. coli BL21-derived host (T7 phage) or HEK-293
T7 sequence (O15530 1-556): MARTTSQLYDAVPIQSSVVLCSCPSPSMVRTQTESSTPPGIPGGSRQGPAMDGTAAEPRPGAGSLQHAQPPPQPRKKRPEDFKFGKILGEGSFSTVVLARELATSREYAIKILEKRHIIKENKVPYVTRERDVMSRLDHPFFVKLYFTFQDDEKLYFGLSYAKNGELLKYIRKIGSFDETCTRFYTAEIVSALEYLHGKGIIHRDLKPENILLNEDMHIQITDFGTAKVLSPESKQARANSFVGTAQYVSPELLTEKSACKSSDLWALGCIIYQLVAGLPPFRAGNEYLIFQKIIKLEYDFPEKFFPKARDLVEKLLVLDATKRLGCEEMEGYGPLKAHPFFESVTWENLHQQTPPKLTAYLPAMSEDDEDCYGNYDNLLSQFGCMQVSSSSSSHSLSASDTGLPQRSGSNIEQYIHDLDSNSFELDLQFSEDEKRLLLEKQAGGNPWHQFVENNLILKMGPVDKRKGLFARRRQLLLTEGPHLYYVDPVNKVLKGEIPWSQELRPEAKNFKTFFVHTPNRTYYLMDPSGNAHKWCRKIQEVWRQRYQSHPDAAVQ

T1 sequence (P06239 whole entry): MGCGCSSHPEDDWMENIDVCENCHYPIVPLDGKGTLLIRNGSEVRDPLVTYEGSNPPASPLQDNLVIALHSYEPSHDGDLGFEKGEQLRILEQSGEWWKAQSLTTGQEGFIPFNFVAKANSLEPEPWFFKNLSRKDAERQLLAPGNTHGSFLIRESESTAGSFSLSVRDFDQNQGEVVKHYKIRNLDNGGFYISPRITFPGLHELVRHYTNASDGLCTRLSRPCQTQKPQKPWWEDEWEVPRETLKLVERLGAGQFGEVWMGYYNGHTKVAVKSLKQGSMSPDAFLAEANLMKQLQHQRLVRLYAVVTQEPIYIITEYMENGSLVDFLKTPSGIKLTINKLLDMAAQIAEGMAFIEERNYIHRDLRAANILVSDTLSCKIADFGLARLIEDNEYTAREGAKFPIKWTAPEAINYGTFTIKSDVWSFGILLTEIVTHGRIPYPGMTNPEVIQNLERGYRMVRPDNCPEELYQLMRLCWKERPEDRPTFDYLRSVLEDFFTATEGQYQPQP
T3 sequence (P42336 whole entry): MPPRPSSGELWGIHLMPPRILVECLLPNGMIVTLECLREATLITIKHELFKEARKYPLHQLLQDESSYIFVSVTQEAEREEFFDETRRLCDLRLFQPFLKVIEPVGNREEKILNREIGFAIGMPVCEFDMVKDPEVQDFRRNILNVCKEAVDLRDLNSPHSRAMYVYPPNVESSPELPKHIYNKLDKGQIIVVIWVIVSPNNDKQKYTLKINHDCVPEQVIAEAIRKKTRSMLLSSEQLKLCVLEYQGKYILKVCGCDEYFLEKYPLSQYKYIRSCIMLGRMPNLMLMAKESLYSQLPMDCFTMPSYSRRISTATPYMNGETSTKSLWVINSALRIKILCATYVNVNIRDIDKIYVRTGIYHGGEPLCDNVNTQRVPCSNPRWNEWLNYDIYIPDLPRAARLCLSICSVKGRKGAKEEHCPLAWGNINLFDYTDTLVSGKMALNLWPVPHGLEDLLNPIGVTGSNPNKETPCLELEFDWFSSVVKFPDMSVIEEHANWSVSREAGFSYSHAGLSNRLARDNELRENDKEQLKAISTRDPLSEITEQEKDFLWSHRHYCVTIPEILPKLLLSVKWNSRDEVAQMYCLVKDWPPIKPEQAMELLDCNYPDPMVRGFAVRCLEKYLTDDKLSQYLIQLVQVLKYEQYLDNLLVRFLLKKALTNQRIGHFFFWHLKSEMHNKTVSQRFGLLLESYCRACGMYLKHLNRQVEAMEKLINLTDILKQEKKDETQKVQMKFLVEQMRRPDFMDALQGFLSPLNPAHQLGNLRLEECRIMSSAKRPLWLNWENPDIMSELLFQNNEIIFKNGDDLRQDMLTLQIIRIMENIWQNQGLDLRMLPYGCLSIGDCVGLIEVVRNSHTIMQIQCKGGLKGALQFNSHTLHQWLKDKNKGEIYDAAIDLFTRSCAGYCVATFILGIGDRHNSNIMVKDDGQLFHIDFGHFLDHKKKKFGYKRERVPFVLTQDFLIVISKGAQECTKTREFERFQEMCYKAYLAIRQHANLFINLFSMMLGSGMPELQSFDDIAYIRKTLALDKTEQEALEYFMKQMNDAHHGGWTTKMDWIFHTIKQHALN
T2 sequence (Q00526 whole entry): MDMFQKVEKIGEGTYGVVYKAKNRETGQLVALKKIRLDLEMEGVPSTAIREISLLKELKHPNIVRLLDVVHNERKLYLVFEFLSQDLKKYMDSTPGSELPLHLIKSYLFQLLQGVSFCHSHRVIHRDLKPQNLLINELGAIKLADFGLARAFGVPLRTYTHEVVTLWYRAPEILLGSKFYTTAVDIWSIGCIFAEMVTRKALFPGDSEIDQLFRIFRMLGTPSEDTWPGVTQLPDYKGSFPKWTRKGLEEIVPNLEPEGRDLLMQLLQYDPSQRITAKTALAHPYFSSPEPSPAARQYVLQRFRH
T4 sequence (Q05397 whole entry): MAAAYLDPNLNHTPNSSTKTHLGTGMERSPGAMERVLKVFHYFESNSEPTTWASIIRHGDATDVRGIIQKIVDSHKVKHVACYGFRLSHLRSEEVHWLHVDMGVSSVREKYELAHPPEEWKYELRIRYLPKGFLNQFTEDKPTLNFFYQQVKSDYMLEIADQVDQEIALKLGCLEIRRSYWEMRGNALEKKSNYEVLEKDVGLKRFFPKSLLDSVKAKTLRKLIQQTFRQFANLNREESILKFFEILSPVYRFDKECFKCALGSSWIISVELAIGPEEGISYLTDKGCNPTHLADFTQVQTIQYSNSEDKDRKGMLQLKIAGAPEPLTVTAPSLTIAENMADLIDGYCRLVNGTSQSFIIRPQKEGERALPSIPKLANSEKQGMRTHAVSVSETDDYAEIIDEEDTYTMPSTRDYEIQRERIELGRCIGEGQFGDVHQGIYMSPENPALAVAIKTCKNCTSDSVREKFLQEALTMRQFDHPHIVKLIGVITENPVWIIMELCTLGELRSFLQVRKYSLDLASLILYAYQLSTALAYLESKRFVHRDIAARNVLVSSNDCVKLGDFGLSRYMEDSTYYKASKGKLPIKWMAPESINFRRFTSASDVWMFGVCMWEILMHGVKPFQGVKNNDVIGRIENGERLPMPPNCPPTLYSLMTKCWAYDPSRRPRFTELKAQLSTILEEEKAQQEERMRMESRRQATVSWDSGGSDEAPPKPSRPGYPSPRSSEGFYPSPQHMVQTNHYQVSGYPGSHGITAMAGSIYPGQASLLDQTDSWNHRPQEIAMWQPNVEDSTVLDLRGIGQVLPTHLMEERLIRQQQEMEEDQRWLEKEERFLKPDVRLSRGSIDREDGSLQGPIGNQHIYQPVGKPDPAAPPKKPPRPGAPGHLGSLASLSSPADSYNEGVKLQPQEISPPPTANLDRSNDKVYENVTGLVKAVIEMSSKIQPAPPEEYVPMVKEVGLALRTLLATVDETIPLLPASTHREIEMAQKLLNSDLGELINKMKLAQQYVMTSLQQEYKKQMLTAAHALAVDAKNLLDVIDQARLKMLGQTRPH

Row | Compound | RA @ 1000nM (LCK) [%] | RA @ 10000nM (LCK) [%] | RA @ 1000nM (CDK3) [%] | RA @ 10000nM (CDK3) [%] | RA @ 1000nM (PIK3CA) [%] | RA @ 10000nM (PIK3CA) [%] | RA @ 1000nM (FAK) [%] | RA @ 10000nM (FAK) [%] | RA @ 1000nM (IKKα) [%] | RA @ 10000nM (IKKα) [%] | RA @ 1000nM (ZAP70) [%] | RA @ 10000nM (ZAP70) [%] | RA @ 1000nM (PDPK1) [%] | RA @ 10000nM (PDPK1) [%]
1 | CC(C)Cn1ncc2cc(Cc3ccc(F)cc3F)c(C(=O)NCCN(C)C)cc21 [Compound 94, 5-(2,4-Difluorobenzyl)-N-(2-(dimethylamino)ethyl)-1-isobutyl-1H-indazole-6-carboxamide] | 100 | 97 | 100 | 1.3 | 77 | 95 | 96 | 89 | 82 | 87 | 100 | 79 | 88 | 74
2 | CN(C)CCNC(=O)c1cc2c(cnn2CC2CCCCC2)cc1Cc1ccc(F)cc1F [Compound 95, 1-(Cyclohexylmethyl)-5-(2,4-difluorobenzyl)-N-(2-(dimethylamino)ethyl)-1H-indazole-6-carboxamide] | 94 | 100 | 100 | 100 | 100 | 100 | 92 | 94 | 92 | 75 | 100 | 100 | 100 | 87
